Results from ChEMBL document CHEMBL1201862, “PubChem BioAssay data set” (2004).
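96-well plates; 48 h exposure; 5 concentrations. Endpoints by linear interpolation between flanking doses. Not reached: highest tested concentration assigned. At the GI50, growth is halved.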 The source made the active and inactive calls. Cut-off read from the data, not from the text of the source: active = GI50 up to about 1.1 µM and inactive = higher.

Assays:
Assay in all cases: inhibition of tumour cell growth, NCI panel, 48 h
HT-29 = test system: HT-29
SR = test system: SR
EKVX = test system: EKVX
SF-268 = test system: SF-268
MOLT-4 = test system: MOLT-4
RPMI-8226 = test system: RPMI-8226
OVCAR-4 = test system: OVCAR-4
HCT-116 = test system: HCT-116
OVCAR-5 = test system: OVCAR-5
K562 = test system: K562
CCRF-CEM = test system: CCRF-CEM
HOP-62 = test system: HOP-62
786-0 = test system: 786-0
OVCAR-3 = test system: OVCAR-3
SNB-75 = test system: SNB-75
DMS-114 = test system: DMS-114
LOX IMVI = test system: LOX IMVI
SK-MEL-5 = test system: SK-MEL-5
ACHN = test system: ACHN
UACC-257 = test system: UACC-257
SN12C = test system: SN12C
OVCAR-8 = test system: OVCAR-8
M14 = test system: M14
SF-295 = test system: SF-295
HCC 2998 = test system: HCC 2998
DMS-273 = test system: DMS-273
CAKI-1 = test system: CAKI-1
NCI-H460 = test system: NCI-H460
SF-539 = test system: SF-539
COLO 205 = test system: COLO 205
SK-MEL-28 = test system: SK-MEL-28
M19-MEL = test system: M19-MEL
TK-10 = test system: TK-10
Malme-3M = test system: Malme-3M
UO-31 = test system: UO-31
XF498 = test system: XF498
SK-MEL-2 = test system: SK-MEL-2
KM12 = test system: KM12
DLD-1 = test system: DLD-1
NCI-H522 = test system: NCI-H522
NCI-H226 = test system: NCI-H226
HCT-15 = test system: HCT-15
SW-620 = test system: SW-620
HL-60 = test system: HL-60
A549 = test system: A549
SNB-19 = test system: SNB-19
A498 = test system: A498
NCI-H23 = test system: NCI-H23
KM-20L2 = test system: KM-20L2
HOP-92 = test system: HOP-92
IGROV-1 = test system: IGROV-1
SK-OV-3 = test system: SK-OV-3
U-251 = test system: U-251
HOP-18 = test system: HOP-18
SNB-78 = test system: SNB-78
RXF 393 = test system: RXF 393
UACC-62 = test system: UACC-62
LXFL 529 = test system: LXFL 529

`Nc1ccc2nc(Nc3ccc(F)cc3)cnc2c1` was tested, and the GI50 (HT-29) was > 100 µM (inactive), the GI50 (SR) was 36.1 µM (inactive) and the GI50 (EKVX) was > 100 µM (inactive). The GI50 (SF-268) was 74.5 µM (inactive), the GI50 (MOLT-4) was 27.7 µM (inactive) and the GI50 (RPMI-8226) was 61.7 µM (inactive). For the same compound, the GI50 (OVCAR-4) was > 100 µM (inactive), the GI50 (HCT-116) was > 100 µM (inactive) and the GI50 (OVCAR-5) was > 100 µM (inactive). For the same compound, the GI50 (K562) was 81.5 µM (inactive), the GI50 (CCRF-CEM) was 30.5 µM (inactive) and the GI50 (HOP-62) was > 100 µM (inactive). The GI50 (786-0) was > 100 µM (inactive), the GI50 (OVCAR-3) was 90.4 µM (inactive) and the GI50 (SNB-75) was > 100 µM (inactive). For the same compound, the GI50 (DMS-114) was 34.4 µM (inactive), the GI50 (LOX IMVI) was > 100 µM (inactive) and the GI50 (SK-MEL-5) was > 100 µM (inactive). For the same compound, the GI50 (ACHN) was > 100 µM (inactive), the GI50 (UACC-257) was > 100 µM (inactive) and the GI50 (SN12C) was > 100 µM (inactive). The GI50 (OVCAR-8) was > 100 µM (inactive), the GI50 (M14) was > 100 µM (inactive) and the GI50 (SF-295) was > 100 µM (inactive). The GI50 (HCC 2998) was > 100 µM (inactive), the GI50 (DMS-273) was > 100 µM (inactive) and the GI50 (CAKI-1) was > 100 µM (inactive). For the same compound, the GI50 (NCI-H460) was > 100 µM (inactive), the GI50 (SF-539) was > 100 µM (inactive) and the GI50 (COLO 205) was > 100 µM (inactive). The GI50 (SK-MEL-28) was > 100 µM (inactive), the GI50 (M19-MEL) was > 100 µM (inactive) and the GI50 (TK-10) was 87.3 µM (inactive). The GI50 (Malme-3M) was > 100 µM (inactive), the GI50 (UO-31) was 47.2 µM (inactive) and the GI50 (XF498) was > 100 µM (inactive). For the same compound, the GI50 (SK-MEL-2) was > 100 µM (inactive), the GI50 (KM12) was > 100 µM (inactive) and the GI50 (DLD-1) was > 100 µM (inactive). For the same compound, the GI50 (NCI-H522) was 44.4 µM (inactive), the GI50 (NCI-H226) was > 100 µM (inactive) and the GI50 (HCT-15) was over 100 µM. The GI50 (SW-620) was > 100 µM (inactive), the GI50 (HL-60) was 54.7 µM (inactive) and the GI50 (A549) was > 100 µM (inactive). The GI50 (SNB-19) was > 100 µM (inactive).

`CCOc1ccc(NC(=O)/C(=C/c2ccccc2)C(C)=O)cc1` was tested, and the GI50 (HT-29) was 10.3 µM (inactive), the GI50 (A498) was 18.1 µM (inactive) and the GI50 (EKVX) was 17.8 µM (inactive). For the same compound, the GI50 (SF-268) was 11.3 µM (inactive), the GI50 (MOLT-4) was 3.73 µM (inactive) and the GI50 (NCI-H23) was 10.9 µM (inactive). For the same compound, the GI50 (RPMI-8226) was 2.94 µM (inactive), the GI50 (OVCAR-4) was 13.4 µM (inactive) and the GI50 (KM-20L2) was 12.9 µM (inactive). The GI50 (HOP-92) was 14.1 µM (inactive), the GI50 (HCT-116) was 4.94 µM (inactive) and the GI50 (OVCAR-5) was 17.6 µM (inactive). For the same compound, the GI50 (K562) was 5.27 µM (inactive), the GI50 (CCRF-CEM) was 2.87 µM (inactive) and the GI50 (HOP-62) was 16.3 µM (inactive). The GI50 (786-0) was 12.2 µM (inactive), the GI50 (OVCAR-3) was 12.5 µM (inactive) and the GI50 (IGROV-1) was 10.2 µM (inactive). For the same compound, the GI50 (SNB-75) was 4.59 µM (inactive), the GI50 (DMS-114) was 11.9 µM (inactive) and the GI50 (LOX IMVI) was 7.14 µM (inactive). For the same compound, the GI50 (SK-MEL-5) was 12.2 µM (inactive), the GI50 (ACHN) was 15.3 µM (inactive) and the GI50 (UACC-257) was 12.2 µM (inactive). The GI50 (SN12C) was 13.2 µM (inactive), the GI50 (OVCAR-8) was 12.1 µM (inactive) and the GI50 (M14) was 12.3 µM (inactive). The GI50 (SF-295) was 13.5 µM (inactive), the GI50 (SK-OV-3) was 24.6 µM (inactive) and the GI50 (HCC 2998) was 13.3 µM (inactive). For the same compound, the GI50 (DMS-273) was 9.14 µM (inactive), the GI50 (CAKI-1) was 11.7 µM (inactive) and the GI50 (U-251) was 12.6 µM (inactive). For the same compound, the GI50 (NCI-H460) was 17.4 µM (inactive), the GI50 (SF-539) was 10.1 µM (inactive) and the GI50 (COLO 205) was 17.2 µM (inactive). For the same compound, the GI50 (SK-MEL-28) was 12.9 µM (inactive), the GI50 (M19-MEL) was 10.8 µM (inactive) and the GI50 (TK-10) was 17.3 µM (inactive). The GI50 (Malme-3M) was 16.5 µM (inactive), the GI50 (UO-31) was 9.66 µM (inactive) and the GI50 (XF498) was 14.4 µM (inactive). The GI50 (SK-MEL-2) was 13.2 µM (inactive), the GI50 (KM12) was 7.1 µM (inactive) and the GI50 (DLD-1) was 7.38 µM (inactive). The GI50 (NCI-H522) was 2.12 µM (inactive), the GI50 (NCI-H226) was 13.2 µM (inactive) and the GI50 (HCT-15) was 8.99 µM. The GI50 (SW-620) was 13.2 µM (inactive), the GI50 (HOP-18) was 12.9 µM (inactive) and the GI50 (SNB-78) was 13.4 µM (inactive). For the same compound, the GI50 (HL-60) was 2.32 µM (inactive), the GI50 (RXF 393) was 5.32 µM (inactive) and the GI50 (A549) was 22.2 µM (inactive). The GI50 (UACC-62) was 5.04 µM (inactive) and the GI50 (SNB-19) was 12.1 µM (inactive).

In the case of `CCCC(=O)Oc1ccc(/C=N/NC(N)=S)nc1`, the GI50 (HT-29) is reported as > 100 µM (inactive), the GI50 (A498) is reported as > 100 µM (inactive) and the GI50 (SR) is reported as 30 µM (inactive). For the same compound, the GI50 (EKVX) was > 100 µM (inactive), the GI50 (SF-268) was 60 µM (inactive) and the GI50 (MOLT-4) was 46.8 µM (inactive). The GI50 (NCI-H23) was > 100 µM (inactive), the GI50 (RPMI-8226) was > 100 µM (inactive) and the GI50 (OVCAR-4) was > 100 µM (inactive). For the same compound, the GI50 (KM-20L2) was > 100 µM (inactive), the GI50 (HOP-92) was > 100 µM (inactive) and the GI50 (HCT-116) was > 100 µM (inactive). The GI50 (OVCAR-5) was > 100 µM (inactive), the GI50 (K562) was > 100 µM (inactive) and the GI50 (CCRF-CEM) was 25.5 µM (inactive). The GI50 (HOP-62) was > 100 µM (inactive), the GI50 (786-0) was 37 µM (inactive) and the GI50 (OVCAR-3) was > 100 µM (inactive). For the same compound, the GI50 (IGROV-1) was > 100 µM (inactive), the GI50 (SNB-75) was > 100 µM (inactive) and the GI50 (DMS-114) was 38.2 µM (inactive). The GI50 (LXFL 529) was > 100 µM (inactive), the GI50 (LOX IMVI) was 54.3 µM (inactive) and the GI50 (SK-MEL-5) was > 100 µM (inactive). The GI50 (ACHN) was 35.6 µM (inactive), the GI50 (UACC-257) was > 100 µM (inactive) and the GI50 (SN12C) was > 100 µM (inactive). For the same compound, the GI50 (OVCAR-8) was 41.8 µM (inactive), the GI50 (M14) was 98.6 µM (inactive) and the GI50 (SF-295) was > 100 µM (inactive). The GI50 (SK-OV-3) was > 100 µM (inactive), the GI50 (HCC 2998) was > 100 µM (inactive) and the GI50 (DMS-273) was > 100 µM (inactive). The GI50 (CAKI-1) was > 100 µM (inactive), the GI50 (U-251) was > 100 µM (inactive) and the GI50 (NCI-H460) was > 100 µM (inactive). The GI50 (SF-539) was 36.5 µM (inactive), the GI50 (COLO 205) was > 100 µM (inactive) and the GI50 (SK-MEL-28) was > 100 µM (inactive). The GI50 (M19-MEL) was > 100 µM (inactive), the GI50 (TK-10) was > 100 µM (inactive) and the GI50 (Malme-3M) was > 100 µM (inactive). For the same compound, the GI50 (UO-31) was 60.1 µM (inactive), the GI50 (SK-MEL-2) was > 100 µM (inactive) and the GI50 (KM12) was > 100 µM (inactive). For the same compound, the GI50 (DLD-1) was > 100 µM (inactive), the GI50 (NCI-H522) was 69 µM (inactive) and the GI50 (NCI-H226) was > 100 µM (inactive). For the same compound, the GI50 (HCT-15) was over 100 µM, the GI50 (SW-620) was > 100 µM (inactive) and the GI50 (HOP-18) was > 100 µM (inactive). For the same compound, the GI50 (SNB-78) was > 100 µM (inactive), the GI50 (HL-60) was 45.1 µM (inactive) and the GI50 (RXF 393) was > 100 µM (inactive). For the same compound, the GI50 (A549) was > 100 µM (inactive), the GI50 (UACC-62) was 64.1 µM (inactive) and the GI50 (SNB-19) was > 100 µM (inactive).
